Columns and labels:
[1] = molecular target: T1, human serum albumin (HSA) (Homo sapiens, UniProt P02768); assay: Labeling of human serum albumin (HSA) with Compound 8, 57Co incorporation, gamma ray counting; conditions: room temperature 30 minutes, PBS, gamma ray count
Procedure: HSA (0.5 mg, 7.5 nmol was dissolved in a PBS buffer solution (1.5 ml) to prepare a 5 μM HSA solution. 320 μl (1.6 nmol) of the HSA solution was introduced into each of 3 Eppendorf tubes. 1.2 μl (40 nmol), 2.3 μl (80 nmol) and 11.8 μl (0.4 μmol) of a DMF solution (3.38×10^−2M) of Compound 8 described above were added to the respective Eppendorf tubes. 160 μl (0.8 nmol) of the 5 μM HSA solution was added to each of the Eppendorf tubes, and 11.8 μl (0.4 μmol) of a DMF solution (3.38×10^−2M) of Compound 8 described above was added to each tube. The reaction mixtures all were left to stand at room temperature for 30 minutes. Purification was performed using a filter with a 30000 molecular weight cut off manufactured by Millipore, followed by concentration. The protein concentration in the contents of each Eppendorf tube was measured, 5 μl of the contents of each Eppendorf tube were added to other Eppendorf tubes, and a 0.25 M ammonium acetate buffer solution (15 μl) and a 400 μM ^57Co solution (10 μl) were added thereto. The reaction mixtures were incubated at 41° C. for 3 hours. 10 μl of a 0.01 M 1,4,7,10-tetraazacyclododecane-1,4,7,10-tetraacetic acid (DOTA) solution was added to each reaction mixture, and incubation was performed at 41° C. for 10 minutes. […] The silica gel plates were cut in half lengthwise, and gamma rays were counted with a gamma ray counter using the plates.

[2] = system: anti-GFP antibody; assay: Labeling of anti-GFP antibody with Compound 8, GFP fluorescence measurement after immune precipitation; conditions: 10 to 1250 equivalents, room temperature 10 minutes; GFP fluorescence excitation 395 nm, emission 509 nm
Procedure: To a PBS buffer solution (81 μl) was added 27 μl of an anti-GFP antibody (20 μg/μl, PBS buffer solution, manufactured by Nacalai Tesque, Inc.) for dilution. The diluted anti-GFP solution was added to 4 Eppendorf tubes each in an amount of 3.3 μM, 8 μl, 2.6×10^−11 mol, and Compound 8 was added in a proportion of 10 equivalents (24 μM, 5 μl, 2.6×10^−10 mol), 50 equivalents (0.12 mM, 5 μl, 1.3×10^−9 mol), 250 equivalents (0.61 mM, 5 μl, 6.6×10^−9 mol) and 1250 equivalents (12 mM, 2.7 μl, 3.3×10^−8 mol) relative to the anti-GFP antibody. The mires were left to stand for 10 minutes at room temperature, and then a GFP antigen (cultured from Escherichia coli, PBS buffer solution, 1000 μl) was added and reacted at 4° C. for 1 hour. Thereafter, Protein G (500 μg, manufactured by GE Healthcare Ltd.) was added to the mixtures and left to stand at the same temperature for 30 minutes. Then, labeled anti-GFP (Compound 24) was purified by subjecting the mixtures to immune precipitation. GFP fluorescence measurement (excitation: 395 nm, emission: 509 nm) was performed on each anti-GFP.

[3] = molecular target: T1, human serum albumin (HSA); assay: Labeling of human serum albumin (HSA), fluorescence spectrum of the reaction product; conditions: phosphate buffer pH 7.4, 40° C. for 1 hour; 420 nm excitation light
Procedure: HSA was dissolved in a phosphate buffer (0.1 M, pH 7.4) to adjust the concentration to 5.0×10^−5 M. 20 μl of a phosphate buffer (0.1 M, pH 7.4) was added to 200 μl of the solution for dilution, and the mixture was pre-incubated at 40° C. for 5 minutes. A 1,4-dioxane (20 μl) solution of Compound 50 (50 μg, 0.1 μmol) was added to the mixture, and the mixture was incubated at 40° C. for 1 hour. 300 μl of 1% acetic acid was added to the reaction solution to quench the reaction, and the reaction solution was purified by gel filtration and lyophilized.
HSA was dissolved in a phosphate buffer solution (0.1 M, pH 7.4) to adjust the concentration to 5.0×10^−5 M. 20 μl of a phosphate buffer solution (0.1 M, pH 7.4) was added to 200 μl of the solution for dilution, and the mixture was pre-incubated at 40° C. for 5 minutes. A 1,4-dioxane (20 μl) solution of Compound 56 (50 μg, 0.1 μmol) was added to the mixture, and the mixture was incubated at 40° C. for 1 hour. 300 μl of 1% acetic acid was added to the reaction solution to quench the reaction, and the reaction solution was purified by gel filtration and lyophilized.

[4] = PET imaging of the biodistribution of 68Ga-DOTA-labeled somatostatin in a rat; format: in vivo, rat (Wistar rat); conditions: tail vein, given as 68Ga-DOTA-labeled somatostatin (Compound 41), accumulated 3 to 7 minutes after administration
Procedure: A DMF solution (40 μl) of Compound 8 produced in Example 3 described above was added to a solution of somatostatin (0.17 mg, 0.10 μmol) in Otsuka distilled water (154 μl) and put into a vortex generator. The reaction mixture was left to stand at room temperature for 30 minutes and then lyophilized, thereby giving the titled Compound 9.
A 1 N hydrochloric acid solution (400 μl) of ^68GaCl3 eluted from a ^68Ga/^68Ge generator was purified, neutralized with aqueous 4 N NaOH and then added to Compound 9 described above. After incubation at 40° C. for 10 minutes, it was injected into a rat (Wistar rat 8W, male, 235 g) (1.68 mCi). Propofol was administered continuously at a rate of […] into the tail vein of the rat for tranquilization, and a PET tracer was administered into the tail vein of the rat.

T1 sequence (P02768 25-609): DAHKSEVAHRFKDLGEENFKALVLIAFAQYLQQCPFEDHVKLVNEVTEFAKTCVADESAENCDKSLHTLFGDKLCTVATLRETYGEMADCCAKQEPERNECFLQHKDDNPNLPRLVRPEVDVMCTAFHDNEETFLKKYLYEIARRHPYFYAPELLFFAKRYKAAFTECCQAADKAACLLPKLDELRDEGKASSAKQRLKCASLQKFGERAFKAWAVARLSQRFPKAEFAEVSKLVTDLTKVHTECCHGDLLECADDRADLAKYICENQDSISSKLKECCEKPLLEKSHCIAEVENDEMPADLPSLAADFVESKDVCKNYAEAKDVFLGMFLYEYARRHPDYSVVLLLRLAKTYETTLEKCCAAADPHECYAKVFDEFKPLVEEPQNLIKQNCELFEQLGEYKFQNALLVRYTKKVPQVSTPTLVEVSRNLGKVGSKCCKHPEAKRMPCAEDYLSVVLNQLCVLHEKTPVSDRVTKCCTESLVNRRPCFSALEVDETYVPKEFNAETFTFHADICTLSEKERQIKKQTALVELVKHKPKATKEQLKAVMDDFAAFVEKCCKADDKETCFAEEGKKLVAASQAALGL

## CCOC(=O)C(/C=C/c1ccc(NC(=O)CNC(=O)CN2CCN(CC(=O)O)CCN(CC(=O)O)CCN(CC(=O)O)CC2)cc1)=C/C=O [Compound 8, 10-(2-(2-(4-((1E,3E)-3-ethoxycarbonyl-5-oxopenta-1,3-dienyl)phenylamino)-2-oxoethylamino)-2-oxoethyl)-1,4,7,10-tetraazacyclododecane-1,4,7-triacetic acid]
[1]
  labeling reaction with HSA (incorporation into HSA, FIG. 1): promptly reacts with somatostatin
[2]
  labeling reaction with anti-GFP antibody (incorporation into antibody, FIG. 2): promptly reacts with the anti-GFP antibody

## CCN(CC)c1ccc2cc(C(=O)NCCOCCOC(=O)C(/C=C/c3ccccc3)=C/C=O)c(=O)oc2c1 [Compound 50, 2-(2-(7-diethylaminocoumarin)-3-carbonylaminoethoxy)ethyl (E,E)-4-oxo-2-styrylbut-2-enoate]
[3]
  fluorescence of the reaction product with HSA: intense fluorescence was observed near 460 nm

## CCN(CC)c1ccc2cc(C(=O)NCCOCCOC(=O)C(/C=C/c3ccc(NC(=O)CCCCCNc4ccc([N+](=O)[O-])c5nonc45)cc3)=C/C=O)c(=O)oc2c1 [Compound 56, 2-(2-(7-diethylaminocoumarin)-3-carbonylaminoethoxy)ethyl (E,E)-4-oxo-2-((6-(N-(7-nitrobenz-2-oxa-1,3-diazol-4-yl)amino)hexanamide)styryl)but-2-enoate]
[3]
  fluorescence of the reaction product with HSA: intense fluorescence was observed near 460 nm

## C[C@H](N)C(=O)NCC(=O)N[C@H]1CSSC[C@@H](C(=O)O)NC(=O)[C@H](CO)NC(=O)[C@H]([C@@H](C)O)NC(=O)[C@H](Cc2ccccc2)NC(=O)[C@H]([C@@H](C)O)NC(=O)[C@H](CCCCN)NC(=O)[C@H](Cc2c[nH]c3ccccc23)NC(=O)[C@H](Cc2ccccc2)NC(=O)[C@H](Cc2ccccc2)NC(=O)[C@H](CC(N)=O)NC(=O)[C@H](CCCCN)NC1=O [somatostatin]
[4]
  distribution in the living body (PET image, FIG. 3): distributed across the heart of the rat
